Reference: US20240271082A1, “[…]-MODIFIED SAC[…] STRAINS AS PR[…] […] AGENTS” (Fzata, Inc., priority 2021, published 2024)

Key:
hTNF-α = hTNF-α (Homo sapiens, UniProt P01375); assay: Neutralization of human TNF-α cytotoxicity on L929 cells; settings: read-out: IC50, block hTNF-α-induced cytotoxicity
Description: After 24h incubation, the antibody-mediated inhibitions of cytotoxicity were measured.

S. boulardii (Sb) = assay: Methotrexate effective dose in S. boulardii; assay type: cell-based; settings: MTX alone, up to 500 nM, 24 hour reading
Description: Cells were seeded at OD=0.2, 24 hour reading.

Crohn's disease = settings: systemic administration; cited from earlier work
[1] = system: patients with COVID-19 pneumonia and systemic hyperinflammation; settings: human, in vivo; cited from earlier work

Chain of hTNF-α (P01375 77-233 limits assumed): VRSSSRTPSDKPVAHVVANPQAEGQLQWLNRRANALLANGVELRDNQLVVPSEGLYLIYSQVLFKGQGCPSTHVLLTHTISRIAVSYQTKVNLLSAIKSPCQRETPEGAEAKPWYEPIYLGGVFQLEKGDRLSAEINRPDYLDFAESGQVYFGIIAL

## Adalimumab [Humira]
hTNF-α
  IC50: 28 pM

## CN(Cc1cnc2nc(N)nc(N)c2n1)c1ccc(C(=O)N[C@@H](CCC(=O)O)C(=O)O)cc1 [MTX, methotrexate]
S. boulardii (Sb)
  growth inhibition of S. boulardii: not enough to cause an effect on growth inhibition

## infliximab: anti-TNF monoclonal antibody
Crohn's disease
  clinical response in Crohn's disease: drastic clinical improvement

## Mavrilimumab: investigational fully-human monoclonal antibody that targets GM-CSF receptor alpha
[1]
  proportion of patients alive and off oxygen therapy at day 14: hyperinflammation. Unfortunately, there was no significant difference
